{
  "source": "patent US8703765B2",
  "about": "“Cyclic inhibitors of 11β-hydroxysteroid dehydrogenase 1” (Boehringer Ingelheim International GmbH, priority 2009, dated 2014)",
  "data": [
    {"molecular_target": "T1, 11β-HSD1 (Homo sapiens, UniProt P28845)", "T1 construct": "detecting cortisol generated from cortisterone by human liver microsomes; from tissue; host or cells: human liver microsomes", "T1 sequence (P28845 whole entry)": "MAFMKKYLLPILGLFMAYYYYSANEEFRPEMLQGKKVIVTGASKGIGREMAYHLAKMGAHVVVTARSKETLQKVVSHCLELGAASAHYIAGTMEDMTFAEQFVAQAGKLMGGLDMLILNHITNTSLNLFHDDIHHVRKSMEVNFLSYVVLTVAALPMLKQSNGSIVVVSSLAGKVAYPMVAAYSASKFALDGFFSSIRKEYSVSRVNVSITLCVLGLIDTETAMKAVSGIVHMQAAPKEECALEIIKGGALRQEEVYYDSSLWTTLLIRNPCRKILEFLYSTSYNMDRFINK", "assay": "In vitro inhibition of 11β-HSD1, HTRF detection of cortisol generated by human liver microsomes", "format": "biochemical", "conditions": "cortisone 80 nM, NADPH 200 μM, 1 hour at 37° C., pH 6.0", "method": "In vitro inhibition of 11 β-HSD1 by test compounds was determined with HTRF (Homogeneous Time-Resolved Fluorescence) technology (cisbio international, France) detecting cortisol generated from cortisterone by human liver microsomes. Briefly, compounds were incubated for 1 hour at 37° C. in Tris buffer (20 mM tris, 5 mM EDTA, pH 6.0) containing NADPH (200 μM) and cortisone (80 nM). Cortisol generated in the reaction was then detected with a competitive immunoassay, involving two HTRF conjugates: cortisol linked to XL665 and anti-cortisol antibody labeled with Europium cryptate. The incubation period for detection reaction was typically 2 hours. The amount of cortisol was determined by reading the time-resolved fluorescence of the wells (Ex 320/75 nm; Em 615/8.5 nm and 665/7.5 nm). The ratio of the two emission signals is then calculated (Em665*10000/Em615). […] Each assay also contained a calibration curve with cortisol to transform the fluorescent data into cortisol concentrations. Percent inhibition of each compound was determined relative to the carbenoxolone signal and IC50 curves were generated.\nIn Table 1 the 11β-HSD 1 inhibitory activities, determined as described above, are compiled.", "units": {"IC50": "µM"}, "values": [
      {"molecule": "Cn1ccc(-c2ccc(C(C3CC3)N3CCC(CC(C)(C)O)(c4ccccc4)OC3=O)cc2)cc1=O", "note": "(stereo not drawn) [Example 3, 3-{Cyclopropyl-[4-(1-methyl-2-oxo-1,2-dihydro-pyridin-4-yl)-phenyl]-methyl}-6-(2-hydroxy-2-methyl-propyl)-6-phenyl-[1,3]oxazinan-2-one]", "IC50": 0.111},
      {"molecule": "Cn1ccc(-c2ccc([C@H](C3CC3)N3CC[C@@](CC(C)(C)O)(c4ccccc4)OC3=O)cc2)cc1=O", "note": "(racemic) [Example 4, 3-{Cyclopropyl-[4-(1-methyl-2-oxo-1,2-dihydro-pyridin-4-yl)-phenyl]-methyl}-6-(2-hydroxy-2-methyl-propyl)-6-phenyl-[1,3]oxazinan-2-one]", "IC50": "> 10"},
      {"molecule": "Cn1cc(-c2ccc(C(C3CC3)N3CCC(CC(C)(C)O)(c4ccccc4)OC3=O)cc2)ccc1=O", "note": "(stereo not drawn) [Example 5, 3-{Cyclopropyl-[4-(1-methyl-6-oxo-1,6-dihydro-pyridin-3-yl)-phenyl]-methyl}-6-(2-hydroxy-2-methyl-propyl)-6-phenyl-[1,3]oxazinan-2-one]", "IC50": 0.035},
      {"molecule": "Cn1ccc(-c2ccc([C@H](C3CC3)N3CC[C@](CC(C)(C)O)(c4ccccc4)OC3=O)cc2)cc1=O", "note": "[Example 7, 3-{(S)-Cyclopropyl-[4-(1-methyl-2-oxo-1,2-dihydro-pyridin-4-yl)-phenyl]-methyl}-(S)-6-(2-hydroxy-2-methyl-propyl)-6-phenyl-[1,3]oxazinan-2-one]", "IC50": 0.064},
      {"molecule": "CC(C)(O)C[C@]1(c2ccccc2)CCN([C@H](c2ccc(-c3ccn(C4CC4)c(=O)c3)cc2)C2CC2)C(=O)O1", "note": "[Example 9, 3-{(S)-Cyclopropyl-[4-(1-cyclopropyl-2-oxo-1,2-dihydro-pyridin-4-yl)-phenyl]-methyl}-(S)-6-(2-hydroxy-2-methyl-propyl)-6-phenyl-[1,3]oxazinan-2-one]", "IC50": 0.038},
      {"molecule": "CC(C)(O)CC1(c2ccccc2)CCN(C(c2ccc(Br)cc2)C2CC2)C(=O)O1", "note": "(stereo not drawn) [Example 1, 3-[(4-Bromo-phenyl)-cyclopropyl-methyl]-6-(2-hydroxy-2-methyl-propyl)-6-phenyl-[1,3]oxazinan-2-one]", "IC50": 0.065},
      {"molecule": "Cn1ccc(-c2ccc([C@@H](C3CC3)N3CC[C@@](CC(C)(C)O)(c4ccccc4)OC3=O)cc2)cc1=O", "note": "[Example 3b, 3-{(R)-cyclopropyl-[4-(1-methyl-2-oxo-1,2-dihydro-pyridin-4-yl)-phenyl]methyl}-(R)-6-(2-hydroxy-2-methyl-propyl)-6-phenyl-[1,3]oxazinan-2-one]", "IC50": "> 4.5"},
      {"molecule": "CC(C)(O)C[C@]1(c2ccccc2)CCN([C@H](c2ccc(Br)cc2)C2CC2)C(=O)O1", "note": "[Example 6, 3-[(S)-(4-Bromo-phenyl)-cyclopropyl-methyl]-(S)-6-(2-hydroxy-2-methyl-propyl)-6-phenyl-[1,3]oxazinan-2-one]", "IC50": 0.053},
      {"molecule": "Cc1ncc(-c2ccc([C@H](C3CC3)N3CC[C@](CC(C)(C)O)(c4ccccc4)OC3=O)cc2)cn1", "note": "[Example 11, 3-{(S)-Cyclopropyl-[4-(2-methyl-pyrimidin-5-yl)-phenyl]methyl}-(S)-6-(2-hydroxy-2-methyl-propyl)-6-phenyl-[1,3]oxazinan-2-one]", "IC50": 0.054},
      {"molecule": "Cn1cc(-c2ccc([C@H](C3CC3)N3CC[C@](CC(C)(C)O)(c4ccccc4)OC3=O)cc2)ccc1=O", "note": "[Example 10, 3-{(S)-Cyclopropyl-[4-(1-methyl-6-oxo-1,6-dihydro-pyridin-3-yl)-phenyl]-methyl}-(S)-6-(2-hydroxy-2-methyl-propyl)-6-phenyl-[1,3]oxazinan-2-one]", "IC50": 0.07},
      {"molecule": "CC(C)(O)C[C@@]1(c2ccccc2)CCN([C@H](c2ccc(Br)cc2)C2CC2)C(=O)O1", "note": "(racemic) [Example 2, 3-[(4-Bromo-phenyl)-cyclopropyl-methyl]-6-(2-hydroxy-2-methyl-propyl)-6-phenyl-[1,3]oxazinan-2-one]", "IC50": 0.96},
      {"molecule": "Cc1ccc(-c2ccc([C@H](C3CC3)N3CC[C@](CC(C)(C)O)(c4ccccc4)OC3=O)cc2)nn1", "note": "[Example 8, 3-{(S)-Cyclopropyl-[4-(6-methyl-pyridazin-3-yl)-phenyl]methyl}-(S)-6-(2-hydroxy-2-methyl-propyl)-6-phenyl-[1,3]oxazinan-2-one]", "IC50": 0.029}
    ]}
  ]
}
